Tests used:
[1] = Encapsulation efficiency of loaded LNPs, RiboGreen RNA assay (Method A); type: physicochemical; settings: encapsulation efficiency of mRNA-loaded LNP, Method A, RiboGreen
Experimental: (§1) The synthesized lipids were tested in term of in vitro transfection efficacy and toxicity on HeLa cells. In order to perform the mentioned biological tests, appropriate LNPs had to be formulated from the synthesized lipids. The formulation technique was different in Method A and B. The particle size, polydispersity index (PDI) and zeta potential of resulting LNPs were determined by means of Dynamic Light Scattering technique (DLS). Prior to biological testing the encapsulation efficiency (EE) of the loaded LNPs was determined by using RiboGreen RNA assay. In case of Method A Luc mRNA while in case of Method B GFP mRNA was transfected into the cells. In parallel with the transfection experiments, toxicity of the investigated LNPs was determined, in case of Method A resazurin assay while in case of Method B MTT assay was used. Additionally, the toxicity of the lipids was investigated on HepG2 cells and IC50 values were determined.
• 1. Preparation of sample stock solutions: In the top row of the 96-well plate (Row A in the plate), add 297 μL of TE buffer pH 7.4 (see Table 1) to a single well for each sample plus a single well for a PBS blank using a multichannel pipette.
• 2. Add 3 μL of sample (at 0.5 mg/ml) to these wells for a final volume of 300 μL. Add 3 μL of PBS to the blank well. Pipette to mix. This is your stock solution for each sample. The final RNA concentration of these stock solutions should be approximately 4-7 μg/mL. • 3. mRNA-LNP sample setup: • a. Add 50 μL of TE buffer pH 7.5 to the two wells directly below each sample (Rows B and C in the plate). • b. Add 50 μL of sample stock solution from Row A into the wells in Rows B and C (this assay is run in duplicate. All liquid handling should be done using a multichannel pipette). • c. Add 50 μL of Triton buffer to the wells in Rows D and E (in the plate) below each sample. • d. Add 50 μL of sample stock solution from Row A into the wells in Rows D and E. • 4. RiboGreen RNA standard curve setup: Dilute the RNA standard to produce an RNA stock at a final concentration of 20 μg/mL in TE buffer pH 7.4. The final volume should be 150 μL. Set up a standard curve (in duplicate) as using the RNA stock (20 μg/mL siRNA), TE buffer pH 7.5, and Triton X-100 buffer according the Table 2 and Table 3 below.
• 5. Once samples and standard curve are plated, incubate the plate at 37° C. for 10 min to lyse mRNA-LNP in the presence of Triton X-100 buffer. • 6. Meanwhile, prepare RiboGreen Solution: Sum the total number of sample wells and standard curve wells. Add three to this number, and multiply the total by 100. This is the total volume, in μL, of RiboGreen Solution needed for this assay. In a 15 mL RNAse-free Falcon tube, dilute the RiboGreen Reagent 1:100 into TE buffer pH 7.5 to the total volume calculated. • 7. Addition of RiboGreen Solution and sample readings: Remove a 96-well plate from 37° C. incubator; let it cool to room temperature as RiboGreen binding is somewhat temperature dependent. Add 100 μL of RiboGreen Solution to each well. Pop any air bubbles with a needle. Read using fluorescent plate reader (excitation=480, emission=525). • 8. Sample analysis: Use the data generated by the RiboGreen standard curve to calculate the concentration of mRNA. Transfection Efficiency with Luciferase-mRNA (Method A)

HeLa cells = assay: Cell viability assessment with resazurin assay (Method A); type: cell-based; settings: human
Experimental: as §1
This protocol is used to determine the metabolic activity of cells as a measure for cell viability after exposure to potentially toxic substances. Resazurin is converted in mitochondria by reduction to resorufin, which has a much higher fluorescence at ˜600 nm compared to unconverted resazurin. A lower amount/percentage of conversion is correlated with reduced cellular metabolism and indirectly to cellular death and toxicity. Care must be taken with interpretation of the read-out, as 50% reduction in resazurin conversion may mean 50% reduction of cellular metabolism of 100% alive cells, or 50% of cells dead, and any combination in between.
• 1. Prepare 0.25 mg/ml stock solution resazurin in fresh cell culture medium. Resazurin is auto-reducing over time in solution, especially in medium, and fresh stocks should be prepared every 2-3 days. Stocks should be stored at 4° C. and protected from light. For HeLa cells, DMEM/F12 with 10% FCS is used. • 2. Dilute stock solution 10× in fresh cell culture medium to 0.025 mg/ml->ready for application on cells. For HeLa cells, DMEM/F12 with 10% FCS is used. • 3. Collect 96-well plate and replace cell-culture spent medium with 100 μl per well resazurin solution. Add some resazurin solution for background measurement in wells not containing cells. • 4. Incubate for 50 minutes in incubator at 37° C., 5% CO2, 95% RH. • 5. Transfer resazurin solution to a fresh 96- or 384-well plate. • 6. Measure in plate reader using 540/25 nm (excitation) and 610/40 nm (emission) using standard settings (PTM low/OD-1.0). • 7. Subtract the average background measurement from all samples. Set the average of the negative controls (well receiving OptiMEM only during transfection) to 100% and express all values as percentage of the control activity. Typically, at lower levels of treatment, elevation of metabolic activity is shown, whereas for toxic substances, at toxic concentrations sigmoidal curves can be obtained, with lower activity indicating higher toxicity.

## CCCCC/C=C\C/C=C\CCCCCCCCOC(CCCCCCC/C=C\C/C=C\CCCCC)O[Si](C)(C)OCCCCCCN(C)CCO (stereo not drawn) [Example 56, (23Z,26Z)-13-((8Z,11Z)-heptadeca-8,11-dien-1-yl)-3,11,11-trimethyl-10,12,14-trioxa-3-aza-11-siladotriaconta-23,26-dien-1-ol]
[1]
  EE (%): 85%
HeLa cells
  Cell Viability % (Average metabolic rate over all doses, Resazurin): 93%

## CCCCC/C=C\C/C=C\CCCCCCCCOC(CCCCCCC/C=C\C/C=C\CCCCC)O[Si](C)(C)OCCCCCCN1CCCCC1 (stereo not drawn) [Example 57, 1-((20Z,23Z)-10-((8Z,11Z)-heptadeca-8,11-dien-1-yl)-8,8-dimethyl-7,9,11-trioxa-8-silanonacosa-20,23-dien-1-yl)piperidine]
[1]
  EE (%): 87%
HeLa cells
  Cell Viability % (Average metabolic rate over all doses, Resazurin): 99%

## CCCCC/C=C\C/C=C\CCCCCCCCOC(CCCCCCC/C=C\C/C=C\CCCCC)O[Si](C)(C)OCCCCCCN1CCN(CCO)CC1 (stereo not drawn) [Example 58, 2-(4-((20Z,23Z)-10-((8Z,11Z)-heptadeca-8,11-dien-1-yl)-8,8-dimethyl-7,9,11-trioxa-8-silanonacosa-20,23-dien-1-yl)piperazin-1-yl)ethan-1-ol]
[1]
  EE (%): 86%
HeLa cells
  Cell Viability % (Average metabolic rate over all doses, Resazurin): 97%

## CCCCC/C=C\C/C=C\CCCCCCCCOC(CCCCCCC/C=C\C/C=C\CCCCC)O[Si](C)(C)OCCCCCCN(C)CC(O)CO (stereo not drawn) [Example 59, (24Z,27Z)-14-((8Z,11Z)-heptadeca-8,11-dien-1-yl)-4,12,12-trimethyl-11,13,15-trioxa-4-aza-12-silatritriaconta-24,27-diene-1,2-diol]
[1]
  EE (%): 88%
HeLa cells
  Cell Viability % (Average metabolic rate over all doses, Resazurin): 90%

## CCCCC/C=C\C/C=C\CCCCCCCCOC(CCCCCCC/C=C\C/C=C\CCCCC)O[Si](C)(C)OCCCCCCN(C)CCCCO (stereo not drawn) [Example 60, (25Z,28Z)-15-((8Z,11Z)-heptadeca-8,11-dien-1-yl)-5,13,13-trimethyl-12,14,16-trioxa-5-aza-13-silatetratriaconta-25,28-dien-1-ol]
[1]
  EE (%): 84%
HeLa cells
  Cell Viability % (Average metabolic rate over all doses, Resazurin): 88%

## CCCCC/C=C\C/C=C\CCCCCCCCOC(CCCCCCC/C=C\C/C=C\CCCCC)O[Si](C)(C)OCCCCCCN(CCCCO)CCCCO (stereo not drawn) [Example 62, (25Z,28Z)-15-((8Z,11Z)-heptadeca-8,11-dien-1-yl)-5-(4-hydroxybutyl)-13,13-dimethyl-12,14,16-trioxa-5-aza-13-silatetratriaconta-25,28-dien-1-ol]
[1]
  EE (%): 84%
HeLa cells
  Cell Viability % (Average metabolic rate over all doses, Resazurin): 89%

## CCCCC/C=C\C/C=C\CCCCCCCCOC(CCCCCCC/C=C\C/C=C\CCCCC)O[Si](C)(C)OCCCCCCN1CCCCC1CO (stereo not drawn) [Example 64, (1-((20Z,23Z)-10-((8Z,11Z)-heptadeca-8,11-dien-1-yl)-8,8-dimethyl-7,9,11-trioxa-8-silanonacosa-20,23-dien-1-yl)piperidin-2-yl)methanol]
[1]
  EE (%): 85%
HeLa cells
  Cell Viability % (Average metabolic rate over all doses, Resazurin): 100%

## CCCCC/C=C\C/C=C\CCCCCCCCOC(CCCCCN(C)CC(O)CO)O[Si](C)(C)OCCCCCCCC/C=C\C/C=C\CCCCC (stereo not drawn) [Example 66, (22Z,25Z)-4,12,12-trimethyl-10-(((9Z,12Z)-octadeca-9,12-dien-1-yl)oxy)-11,13-dioxa-4-aza-12-silahentriaconta-22,25-diene-1,2-diol]
[1]
  EE (%): 82%
HeLa cells
  Cell Viability % (Average metabolic rate over all doses, Resazurin): 91%

## C#CCN(C)CCCCCCO[Si](C)(C)OC(CCCCCCC/C=C\C/C=C\CCCCC)OCCCCCCCC/C=C\C/C=C\CCCCC (stereo not drawn) [Example 67, (20Z,23Z)-10-((8Z,11Z)-heptadeca-8,11-dien-1-yl)-N,8,8-trimethyl-N-(prop-2-yn-1-yl)-7,9,11-trioxa-8-silanonacosa-20,23-dien-1-amine]
[1]
  EE (%): 88%
HeLa cells
  Cell Viability % (Average metabolic rate over all doses, Resazurin): 94%
